Results published in patent US10369123B2, “Perk activator for the treatment of neurodegenerative diseases” (DEUTSCHES ZENTRUM FÜR NEURODEGENERATIVE ERKRANKUNGEN E.V. …, priority 2014, dated 2019).

Assays:
Type in all cases: cell-based, human
[1] = test system: unfolded protein response (PERK, EIF2A); test: Western blot of UPR proteins in differentiated LUHMES neurons; conditions: 48 h; for phosphorylated EIF2A (pEIF2A) protein / phosphorylated PERK (pPERK) protein: thapsigargin 30 nM or annonacin 25 nM
Procedure: (§1) Nunc™ Nunclon™ Delta 6-well (for protein and mRNA) or 48-well (for cell assays) plates (Thermo Fisher Scientific, Waltham, Mass., USA) were coated with 100 μg/ml poly-L-lysine (Sigma-Aldrich, St. Louis, Mo., USA) and 5 μg/ml fibronectin (Sigma-Aldrich). LUHMES (Lund Human Mesencephalic) cells, derived from human embryonic ventral mesencephalic cells by conditional immortalization (Tet-off v-myc over-expression) were seeded out in a concentration of 130,000 cells/cm^2 to achieve a confluence of 50%. They were then differentiated for 8 days in a medium of DMEM/F12 (Sigma-Aldrich), 1 μg/ml tetracycline, […] and 490 μg/ml dbcAMP into post-mitotic neurons with a dopaminergic phenotype (Lotharius et al. 2005).
(§2) For all experiments with annonacin, the medium was replaced during the intoxication period with new medium containing glucose levels reduced to 250 μM, i.e. the physiological concentration in the human brain.
(§3) Protein was extracted by scraping the cells from the culture plate with Mammalian Protein Extraction Reagent (M-PER, Thermo Fisher Scientific) and 1× cOmplete Protease Inhibitor Cocktail Tablets (Hoffmann-La Roche, Basel, Switzerland) and 1× PhosSTOP Phosphatase Inhibitor Cocktail Tablets (Hoffmann-La Roche). For pNRF2 blots, cells were extracted with 2% SDS tris-buffer instead of M-PER in order to obtain whole cell extracts and not to lose the nuclear fraction. The protein solution was frozen at −80° C., immediately after retrieval, for a minimum of two hours. The solution was then thawed on ice, vortexed, centrifuged at 5000 g for 15 min at 4° C. and the supernatant retrieved. Protein concentrations were determined using the BCA kit (Thermo Fisher Scientific) by heating the samples at 60° C. for 30 min and measuring the absorption on the NanoDrop 2000c Spectrophotometer (Thermo Fisher Scientific).
200 μg of protein were diluted to equal concentrations with M-PER lysis buffer (Thermo Fisher Scientific) up to 270 μl. The PERK D11A8 antibody (Cell Signaling Technology, Beverly, Mass., USA) was added to a concentration of 1:100 and allowed to bind the antigen for one hour in a rotating 1.5 ml microcentrifuge tube. Then 30 μl of protein sepharose A beads (Sigma-Aldrich, 3 mg per ml) were added to each tube and left rotating overnight at 4° C. The tubes were then centrifuged at 10,000 g for 3 minutes and the supernatant was discarded. The beads were washed in M-PER three times. Each time the beads were centrifuged and the supernatant was extracted with a Hamilton Syringe (Hamilton, Bonaduz, Switzerland) and discarded. The beads were then mixed with 15 μl 1× Roti®-Load 1 (Carl Roth) and heated at 95° C. for 5 minutes. After another centrifugation step of 10,000 g for 1 minute the supernatant was loaded onto a gel with the Hamilton syringe and then blotted as described below.
(§4) 20 μg of protein (unless indicated otherwise) were adjusted to equal concentrations between samples by dilution with M-PER and subsequently heated at 95° C. for 5 minutes with Roti®-Load 1 (Carl Roth). SDS-PAGE was performed using Any kD™ Mini-PROTEAN® TGX™ Gels (BioRad, Berkeley, Calif., USA) in a tris-glycine running buffer. The protein was blotted onto PVDF membrane (BioRad) at 70 V for 65 minutes on ice. The membrane was blocked with 1× Roti®-Block solution (Carl Roth) for 1 h and then incubated at 4° C. overnight under gentle shaking with the primary antibody (see Table 5) in TBS with 5% BSA (Cell Signaling Technology) and 0.05% TWEEN (Sigma-Aldrich).
The membranes were then washed and incubated with the species specific HRP-bound secondary antibody (Vector Laboratories, Burlingame, Calif., USA) at 1:2500 in 1× Roti®-Block solution for 2 h, followed by further washing and exposure to Clarity Western ECL Substrate (BioRad) or, in the case of MC1 and 4R-tau, to Amersham™ ECL™ Prime (GE Healthcare). […]

[2] = test system: 4R-tau and 3R-tau isoforms; test: Western blot of 3R-/4R-tau isoforms, annonacin model; conditions: annonacin 25 nM, 48 h
Procedure: as §1, with “2005). […]” for “2005).”
Protein was extracted by scraping the cells from the culture plate with Mammalian Protein Extraction Reagent (M-PER, Thermo Fisher Scientific) and 1× cOmplete Protease Inhibitor Cocktail Tablets (Hoffmann-La Roche, Basel, Switzerland) and 1× PhosSTOP Phosphatase Inhibitor Cocktail Tablets (Hoffmann-La Roche). […] Protein concentrations were determined using the BCA kit (Thermo Fisher Scientific) by heating the samples at 60° C. for 30 min and measuring the absorption on the NanoDrop 2000c Spectrophotometer (Thermo Fisher Scientific). […]

[3] = test system: 3R/4R MAPT mRNA, splicing factor SRSF2; test: Quantitative PCR of MAPT isoforms and splicing factors, annonacin model; conditions: annonacin
Procedure: as §1, §2
(§5) RNA from human tissue samples was extracted by grinding the tissue in liquid nitrogen to a powder and then dissolving it in the RA1 buffer supplied as part of the NucleoSpin® RNA (Macherey Nagel) RNA extraction kit+1% (v/v) 2-mercaptoethanol (Sigma-Aldrich). RNA from cells was extracted by scraping the cells from the culture plate with RA1 buffer+1% (v/v) 2-mercaptoethanol. The remaining extraction procedure was according to the manufacturer's instructions for the NucleoSpin® RNA kit. RNA concentrations were determined using the NanoDrop 2000c Spectrophotometer. The RNA was then transcribed into cDNA with the iScript™ cDNA Synthesis Kit (BioRad) using the manufacturer's instructions. Real-Time PCR was performed on the Applied Biosystems® StepOnePlus™ (Life Technologies) system using TagMan® Universal Master Mix II and TaqMan® primers against total MAPT, MAPT 3R, MAPT 4R, EIF2A, EI2AK3 and ATF4. POL2A and PSCM1 served as reference targets as they were determined to be the most stably expressed across experimental conditions. The results were analyzed using the StepOne Plus software (Life Technologies) and Qbase software (Biogazelle) and were then graphically and statistically analyzed with Prism 6 (GraphPad Software). Absolute quantification was performed by creating a standard curve with plasmids containing either the 2N3R or the 2N4R spliced variant of MAPT (see Table 2). The absolute quantity was computed by deriving the relationship between CT values and absolute quantity with the StepOne Plus software.

[4] = test system: EIF2AK3, EIF2A and ATF4 mRNA; test: Quantitative PCR of UPR genes in differentiated LUHMES neurons; conditions: 48 h; for ATF4 mRNA expression: thapsigargin 30 nM or annonacin 25 nM
Procedure: as §1, §2, §5

[5] = test system: LUHMES neurons; test: ATP assay, annonacin-treated LUHMES neurons; conditions: annonacin alone, different concentrations, 48 h
Procedure: as §1, §2
ATP assays were conducted using the ViaLight™ plus kit by Lonza according to the manufacturer's instructions. Luminescence was read with the FLUOstar Omega (BMG Labtech) platereader. The data was analyzed using the MARS Data Analysis Software (BMG Labtech) and Prism 6.

[6] = test system: LUHMES neurons; test: MTT assay, annonacin-treated LUHMES neurons; conditions: annonacin alone, different concentrations, 48 h
Procedure: as §1, §2
Thiazolyl Blue Tetrazolium […] (MTT) (Sigma Aldrich) was dissolved in sterile PBS to a concentration of 5 mg/ml. This stock solution was added to the cells in culture medium to achieve a final concentration of 0.5 mg/ml. The 48-well culture plate was then incubated at 37° C. for 1 h, the medium removed completely and frozen at −80° C. for 1 h. The plate was then thawed, 300 μl DMSO (AppliChem, Darmstadt, Germany) was added per well and the plate was shaken to ensure complete dissolution of the violet crystals. 100 μl from each well were transferred to a new 96-well plate and the absorbance was read with the FLUOstar Omega (BMG Labtech) platereader at a wavelength of 590 nm (reference wave length 630 nm). The data was analyzed using the MARS Data Analysis Software (BMG Labtech) and Prism 6.

[7] = test system: tau; test: Western blot of tau conformation and phosphorylation, annonacin model; conditions: annonacin 25 nM, 48 h
Procedure: as §1, §2, §3, §4
The membranes were then washed and incubated with the species specific HRP-bound secondary antibody (Vector Laboratories, Burlingame, Calif., USA) at 1:2500 in 1× Roti®-Block solution for 2 h, followed by further washing and exposure to Clarity Western ECL Substrate (BioRad) or, in the case of MC1 and 4R-tau, to Amersham™ ECL™ Prime (GE Healthcare). Chemiluminescence was detected with the Gel Doc™ XR System (BioRad) and analyzed with Image Lab™ software (BioRad), followed by graphical and statistical analysis with Prism 6 (GraphPad Software).

[8] = test system: LUHMES neurons; test: Morphological inspection and counts of viable cells; conditions: annonacin 25 nM, 48 h
Procedure: as §1, §2
The protection by the PERK activator against annonacin and 4R-tau protein overexpression was also evident on morphological inspection of the cells. […] Lentiviral 4R-tau overexpression had similar effects. […] Cell counts of viable cells with intact nuclear and somatic morphology were counted in randomly selected 1300×1000 sized areas in 4 biological replicates each, confirming the protective effects of Pa.

Row | Compound | total EIF2A protein ([1]; annonacin 25 nM, vs untreated) | total PERK protein ([1]; annonacin 25 nM, vs untreated) | phosphorylated EIF2A (pEIF2A) protein ([1]; vs untreated) | phosphorylated PERK (pPERK) protein ([1]; vs untreated) | 4R-tau protein level [2] | splicing factor SRSF2 mRNA [3] | 4R-tau mRNA level ([3]; 48 h) | EIF2A mRNA expression ([4]; annonacin 25 nM) | ATF4 mRNA expression [4] | ATP concentration [5] | MTT signal [6] | total tau protein (HT7) [7] | AD2 (p-Ser-396 and 404) tau phosphorylation ([7]; vs control) | CP13 (p-Ser-202) tau phosphorylation ([7]; vs control) | MC1 pathological tau conformation ([7]; vs control) | condensation of DNA to chromatin clumps [8] | density of the dendritic network [8] | pPERK/PERK ratio ([1]; thapsigargin 30 nM) | EIF2AK3 mRNA expression ([4]; thapsigargin 30 nM)
1 | CCCCCCCCCCCC[C@@H](O)[C@H]1CC[C@H]([C@H](O)CCCC[C@H](O)CCCCC[C@@H](O)CC2=CC(C)OC2=O)O1 (stereo partly shown) [annonacin] | reduced | reduced | reduced | increased | increase | significantly increase | increase | upregulated | upregulated | concentration-dependent decline | concentration-dependent decline | not altered | significantly increased | significantly increased | increased | led to the condensation of DNA to chromatin clumps | reduced |  | 
2 | C/C=C(/C)C(=O)O[C@H]1C(C)=C2[C@H]([C@@H]1OC(=O)CCCCCCC)[C@@](C)(OC(C)=O)C[C@H](OC(=O)CCC)[C@@]1(O)[C@H]2OC(=O)[C@@]1(C)O [thapsigargin] |  |  | increased phosphorylation | increased phosphorylation |  |  |  |  | increased expression |  |  |  |  |  |  |  |  | significantly increased | increased expression
